This is an account of results in patent US20260139005A1 (priority 2022, published 2026).

Where a SMILES comes first, the peptide text is derived from it.

One assay concerns B. cinerea. The experiment in a line: Semi-in planta drop-inoculation antifungal assay on detached N. benthamiana leaves (gray mold). As to conditions: B. cinerea spores, peptide 0.75, 1.5, 3 and 6 μM, 48 h. Type of assay: in vivo, Botrytis cinerea on Nicotiana benthamiana.
In a further assay the test system is Botrytis cinerea T-4. The experiment in a line: MIC determination, 96-well plate assay with resazurin cell viability readout. The assay is classed as cell-based. The procedure:
The fungal strain of Botrytis cinerea T-4 was cultured on V8 agar plates. Fungal spores were harvested by flooding the fungal growth plates with sterile water. The spore suspension was filtered through two layers of Miracloth, centrifuged at 13,600 rpm for 1 min, washed, and re-suspended in low-salt Synthetic Fungal Medium (SFM) (U.S. Pat. No. 6,316,407, incorporated herein by reference in its entirety). The spore suspension was adjusted to the desired spore count using a hemocytometer.
Antifungal activity of NCR13_V7 (SEQ ID NO: 9) and NCR13_V9 (SEQ ID NO: 11) was assessed at different concentrations using a 2-fold dilution series of each peptide. Antifungal activity of each peptide was determined spectrophotometrically using the 96-well plate assay (Kereszt et al., Front. Plant Sci. 9, 1026 (2018)). Around 45 μL of each peptide at different concentrations was added to each well of the microtiter plate containing 45 μL of ˜10^5 spores/ml spore suspension. The quantitative fungal growth inhibition was determined by measuring the absorbance at 595 nm using a (Tecan Infinite M200 ProTecan Systems Inc., San Jose, CA) microplate reader after 48 h. The fungal cell viability was determined by the resazurin cell viability assay (Tiricz et al., Appl. Environ. Microbiol. 79, 6737-6746 (2013);. Balogh et al., Acta Microbiol. Immunol. Hung. 61, 229-239 (2014)). […]

A further assay has as its system Botrytis cinerea. The experiment in a line: MIC of NCR13 and alanine scanning variants, 96-well plate / resazurin assay. The assay is classed as cell-based. As to conditions: 48 h. How it is done: Antifungal activity of NCR13_AlaV1-V5 was assessed at different concentrations using a 2-fold dilution series of each peptide. Antifungal activity of each peptide was determined spectrophotometrically using the 96-well plate assay. Around 45 μL of each peptide at different concentrations was added to each well of the microtiter plate containing 45 μL of ˜[…] spore suspension. The quantitative fungal growth inhibition was determined by measuring the absorbance at 595 nm using a (Tecan Infinite M200 ProTecan Systems Inc., San Jose, CA) microplate reader after 48 h. The fungal cell viability was determined by the resazurin cell viability assay. After incubation of the pathogen/peptide mixture for 48 h, 10 μl of 0.1% resazurin solution was added to each well. After incubation of the mixture overnight, a change in the color of the resazurin dye from blue to pink or colorless indicated the presence of live fungal cells. The MIC for each peptide was the lowest concentration of each peptide at which no change in blue color occurred.

As for `N=C(N)NCCC[C@H](NC(=O)[C@H](CS)NC(=O)[C@H](Cc1c[nH]c2ccccc12)NC(=O)[C@H](Cc1ccccc1)NC(=O)[C@H](CCCCN)NC(=O)[C@@H](N)CCCCN)C(=O)N[C@@H](CCCCN)C(=O)N1CCC[C@H]1C(=O)N[C@@H](CCCCN)C(=O)N[C@@H](Cc1c[nH]c2ccccc12)C(=O)N1CCC[C@H]1C(=O)N[C@@H](CCCCN)C(=O)N[C@@H](CS)C(N)=O` [NCR13_V9, KKFWCRKPKWPKC-NH2] (H-KKFWCRKPKWPKC-NH2; N-terminus assumed), the “reduction of lesion size” value in the assay with B. cinerea is reported as “reduced the lesion sizes greater than NCR13_V7”. Besides, the “fold higher antifungal activity than NCR13_V7” value in the assay with Botrytis cinerea T-4 (B. cinerea in SFM) worked out at 2 fold. Further, in the assay on Botrytis cinerea T-4 (B. cinerea, low-salt Synthetic Fungal Medium (SFM), 48 h), the “MIC (μM) in SFM” value amounted to 1.5 µM.

Take `CC[C@H](C)[C@H](NC(=O)[C@H](CS)NC(=O)[C@H](C)NC(=O)[C@H](C)NC(=O)[C@H](C)NC(=O)[C@H](CCCCN)NC(=O)[C@@H]1CCCN1C(=O)[C@H](CCCCN)NC(=O)[C@H](CCCNC(=N)N)NC(=O)[C@H](CS)NC(=O)[C@H](C)NC(=O)[C@H](Cc1ccccc1)NC(=O)[C@H](CCCCN)NC(=O)[C@H](CCCCN)NC(=O)[C@H](CS)NC(=O)[C@H](CC(=O)O)NC(=O)[C@H](CCCCN)NC(=O)[C@H](CC(=O)O)NC(=O)[C@H](CO)NC(=O)[C@H](CCC(N)=O)NC(=O)[C@H](CS)NC(=O)[C@@H]1CCCN1C(=O)[C@H](CCCCN)NC(=O)[C@@H](N)[C@@H](C)O)C(=O)N[C@@H](CC(N)=O)C(=O)NCC(=O)N[C@@H](Cc1ccccc1)C(=O)N[C@@H](CS)C(=O)N[C@@H](CCCCN)C(=O)N[C@@H](CS)C(=O)N[C@H](C(=O)N[C@@H](CCCNC(=N)N)C(=O)O)C(C)C` [NCR13_AlaV4] (H-TKPCQSDKDCKKFACRKPKAAACINGFCKCVR-OH; N-terminus and C-terminus assumed): the “MIC (μM) Botrytis cinerea” value in the assay on Botrytis cinerea is recorded as “Inactive”.

With “TKPCQSDKDCAAAACRKPKVPKCINGFCKCVR [NCR13_AlaV2]”, the “MIC (μM) Botrytis cinerea” value in the assay with Botrytis cinerea is “Inactive”.

For the compound “TKPCQSDKDCKKFACAAAAVPKCINGFCKCVR [NCR13_AlaV3]”, the “MIC (μM) Botrytis cinerea” value in the assay with Botrytis cinerea is recorded as “Inactive”.
